Assay [1] deals with T1, PDE4D (Homo sapiens, UniProt Q08499).
T1 construct: PDE4D: The catalytic domain of human PDE4B from S3 16-V692; His6 (N); thrombin cleavage site (N); made in house; host or cells: E. coli
As to the kind of experiment: PDE4 IC50 determination by Scintillation Proximity Assay, PDE4D. The class given is biochemical. The conditions noted are these: Table 1B, Formula I compounds; read-out: IC50 PDE4D. The method, boiled down: (§1)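 Scintillation counts reflected [^3H]AMP captured on yttrium silicate SPA beads after enzyme hydrolysed [^3H]cAMP for 30 min at 30°. PDE4B was used at 80 ng/ml and PDE4D at 4 ng/ml. IC50 values came from non-linear regression.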
Background: SPA uses beads or plates that emit light when radiolabelled molecules are held near them.

Assay [2] has as its target T2, PDE4B: The catalytic domain of human PDE4B from S152-S528 (Homo sapiens, UniProt Q07343).
T2 construct: His6 (N); thrombin cleavage site (N); made in house; host or cells: E. coli
As to the kind of experiment: PDE4 IC50 determination by Scintillation Proximity Assay, PDE4B. The class given is biochemical. The conditions noted are these: Table 1B, Formula I compounds; read-out: IC50 PDE4B. The procedure, abridged: as §1

T1 sequence (Q08499 380-756): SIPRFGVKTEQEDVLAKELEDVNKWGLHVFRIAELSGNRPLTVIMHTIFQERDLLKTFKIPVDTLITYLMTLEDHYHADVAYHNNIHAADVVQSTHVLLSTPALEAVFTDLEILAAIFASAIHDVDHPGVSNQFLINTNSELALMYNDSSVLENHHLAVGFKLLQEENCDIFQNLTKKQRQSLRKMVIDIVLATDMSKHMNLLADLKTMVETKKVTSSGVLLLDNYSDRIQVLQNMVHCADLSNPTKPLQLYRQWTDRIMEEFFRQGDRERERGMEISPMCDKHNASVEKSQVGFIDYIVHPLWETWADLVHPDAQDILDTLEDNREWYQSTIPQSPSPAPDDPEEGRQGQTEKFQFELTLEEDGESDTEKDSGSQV
T2 sequence (Q07343 with tags, fused parts or gaps): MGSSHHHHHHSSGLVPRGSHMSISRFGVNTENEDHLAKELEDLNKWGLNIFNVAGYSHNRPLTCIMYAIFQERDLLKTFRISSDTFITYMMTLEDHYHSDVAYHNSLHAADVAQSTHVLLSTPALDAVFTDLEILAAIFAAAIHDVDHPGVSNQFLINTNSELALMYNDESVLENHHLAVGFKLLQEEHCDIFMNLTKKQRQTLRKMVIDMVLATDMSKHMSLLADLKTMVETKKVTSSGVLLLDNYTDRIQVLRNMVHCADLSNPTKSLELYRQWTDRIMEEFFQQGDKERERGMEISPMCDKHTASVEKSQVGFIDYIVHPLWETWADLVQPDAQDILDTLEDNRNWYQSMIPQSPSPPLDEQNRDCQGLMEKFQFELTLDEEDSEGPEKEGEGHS

As a reminder, the IC50 is the concentration that inhibits the measured activity by half. With `N#Cc1c(Nc2ccccc2F)sc(C(=O)c2ccccn2)c1N` [Compound 1-144, 4-Amino-2-(2-fluoro-phenylamino)-5-(pyridine-2-carbonyl)-thiophene-3-carbonitrile], the IC50 in assay [1] and in assay [2] was less than 10 µM each time.
`COc1ccc(Nc2sc(C(=O)c3ccccn3)c(N)c2C#N)cc1` [Compound 1-145, 4-Amino-2-(4-methoxy-phenylamino)-5-(pyridine-2-carbonyl)-thiophene-3-carbonitrile]: the IC50 in assay [1] and in assay [2] was greater than 10 µM in each case.
Turning to `N#Cc1cccc(Nc2sc(C(=O)c3ccccn3)c(N)c2C#N)c1` [Compound 1-146, 4-Amino-2-(3-cyano-phenylamino)-5-(pyridine-2-carbonyl)-thiophene-3-carbonitrile], the IC50 in assay [1] was greater than 10 µM; in assay [2] it was less than 10 µM.
For `N#Cc1c(Nc2ccc3c(c2)CCC3)sc(C(=O)c2ccccn2)c1N` [Compound 1-147, 4-Amino-2-(indan-5-ylamino)-5-(pyridine-2-carbonyl)-thiophene-3-carbonitrile] the same measures were less than 10 µM and less than 10 µM.
For `COC(=O)c1ccccc1Nc1sc(C(=O)c2ccccn2)c(N)c1C#N` [Compound 1-148, 2-[4-Amino-3-cyano-5-(pyridine-2-carbonyl)-thiophen-2-ylamino]-benzoic acid methyl ester] the same measures were less than 10 µM and less than 10 µM.
`COc1ccc(CNc2sc(C(=O)c3ccccn3)c(N)c2C#N)cc1OC` [Compound 1-149, 4-Amino-2-(3,4-dimethoxy-benzylamino)-5-(pyridine-2-carbonyl)-thiophene-3-carbonitrile]: the IC50 in assay [1] and in assay [2] was less than 10 µM each time.
With `N#Cc1c(Nc2ccc(Oc3ccccc3)cc2)sc(C(=O)c2ccccn2)c1N` [Compound 1-150, 4-Amino-2-(4-phenoxy-phenylamino)-5-(pyridine-2-carbonyl)-thiophene-3-carbonitrile], the IC50 was greater than 10 µM in assay [1] and less than 10 µM in assay [2].
For `N#Cc1c(Nc2ccc(C(=O)NC3CCOC3=O)cc2)sc(C(=O)c2ccccn2)c1N` (centres unmarked) [Compound 1-151, 4-[4-Amino-3-cyano-5-(pyridine-2-carbonyl)-thiophen-2-ylamino]-N-(2-oxo-tetrahydro-furan-3-yl)-benzamide] the same measures were greater than 10 µM and less than 10 µM.
In the same order, the values of `N#Cc1c(NC2CCOC2=O)sc(C(=O)c2ccccn2)c1N` (centres unmarked) [Compound 1-152, 4-Amino-2-(2-oxo-tetrahydro-furan-3-ylamino)-5-(pyridine-2-carbonyl)-thiophene-3-carbonitrile] are greater than 10 µM and greater than 10 µM.
For `CCc1ccccc1Nc1sc(C(=O)c2ccccn2)c(N)c1C#N` [Compound 1-153, 4-Amino-2-(2-ethyl-phenylamino)-5-(pyridine-2-carbonyl)-thiophene-3-carbonitrile] the same measures were greater than 10 µM and less than 10 µM.
On to `COC(=O)C(CC(C)C)Nc1sc(C(=O)c2cc(OC)ccc2OC)c(N)c1C#N` (centres unmarked) [Compound 1-154, 2-[4-Amino-3-cyano-5-(2,5-dimethoxy-benzoyl)-thiophen-2-ylamino]-4-methyl-pentanoic acid methyl ester], for which the half-inhibitory concentration (IC50) is greater than 10 µM in assay [1] and less than 10 µM in assay [2].
For `COC(=O)C(CCSC)Nc1sc(C(=O)c2cccc(Cl)c2)c(N)c1C#N` (centres unmarked) [Compound 1-156], the IC50 in assay [1] and in assay [2] was less than 10 µM throughout.
As for `Cc1ccc(C(=O)c2sc(Nc3ccc4c(c3)CCC4)c(C#N)c2N)c(C)c1` [Compound 1-157, 4-Amino-5-(2,4-dimethyl-benzoyl)-2-(indan-5-ylamino)-thiophene-3-carbonitrile], the IC50 in assay [1] and in assay [2] was less than 10 µM throughout.
In the case of `Cc1ccc(C(=O)c2sc(Nc3ccc(Oc4ccccc4)cc3)c(C#N)c2N)c(C)c1` [Compound 1-158, 4-Amino-5-(2,4-dimethyl-benzoyl)-2-(4-phenoxy-phenylamino)-thiophene-3-carbonitrile], the figures for the IC50 in assay [1] and in assay [2] were greater than 10 µM and less than 10 µM, respectively.
For `N#Cc1c(NC2CCOC2=O)sc(C(=O)c2csc3ccccc23)c1N` (centres unmarked) [Compound 1-159, 4-Amino-5-(benzo[b]thiophene-3-carbonyl)-2-(2-oxo-tetrahydro-furan-3-ylamino)-thiophene-3-carbonitrile] the same measures were less than 10 µM and less than 10 µM.
In the same order, the values of `Cc1ccccc1C(=O)Nc1sc(C(=O)c2ccccn2)c(N)c1C#N` [Compound 1-160, N-[4-Amino-3-cyano-5-(pyridine-2-carbonyl)-thiophen-2-yl]-2-methyl-benzamide] are greater than 10 µM and less than 10 µM.
As to `COc1ccc(CNc2sc(C(=O)c3ccc(C)cc3C)c(N)c2C#N)cc1OC` [Compound 1-162, 4-Amino-2-(3,4-dimethoxy-benzylamino)-5-(2,4-dimethyl-benzoyl)-thiophene-3-carbonitrile], the IC50 in assay [1] and in assay [2] was less than 10 µM throughout.
On to `N#Cc1c(Nc2ccc(Oc3ccccc3)cc2)sc(C(=O)c2cccc(Cl)c2)c1N` [Compound 1-163, 4-Amino-5-(3-chloro-benzoyl)-2-(4-phenoxy-phenylamino)-thiophene-3-carbonitrile], for which the concentration for half-maximal inhibition (IC50) in assay [1] is greater than 10 µM; in assay [2], less than 10 µM.
Turning to `N#Cc1c(Nc2ccc(OC(F)F)cc2)sc(C(=O)c2ccc(OC(F)F)cc2)c1N` [Compound 1-165, 4-Amino-5-(4-difluoro-methoxy-benzoyl)-2-(4-difluoromethoxy-phenylamino)-thiophene-3-carbonitrile], the IC50 in assay [1] and in assay [2] was less than 10 µM in each case.
Regarding `N#Cc1c(Nc2ccc(Cl)c(C(F)(F)F)c2)sc(C(=O)c2ccccc2)c1N` [Compound 1-168, 4-Amino-5-benzoyl-2-(4-chloro-3-trifluoromethyl-phenylamino)-thiophene-3-carbonitrile], the half-inhibitory concentration (IC50) in assay [1] and in assay [2] was less than 10 µM each time.
For the compound `N#Cc1c(Nc2cccc([N+](=O)[O-])c2)sc(C(=O)c2ccccc2)c1N` [Compound 1-170, 4-Amino-5-benzoyl-2-(3-nitro-phenylamino)-thiophene-3-carbonitrile], the half-maximal inhibitory concentration (IC50) in assay [1] and in assay [2] was less than 10 µM in each case.
As for `CCOC(=O)c1cc(C(=O)c2sc(Nc3cccc(SC)c3)c(C#N)c2N)on1` [Compound 1-176, 5-[3-Amino-4-cyano-5-(3-methylsulfanyl-phenylamino)-thiophene-2-carbonyl]-isoxazole-3-carboxylic acid ethyl ester], the IC50 in assay [1] and in assay [2] was less than 10 µM throughout.
Take `COc1ccc(C(=O)c2sc(NC3CC3)c(C#N)c2N)cc1` [Compound 1-178, 4-Amino-2-cyclopropylamino-5-(4-methoxy-benzoyl)-thiophene-3-carbonitrile]: the IC50 in assay [1] and in assay [2] was less than 10 µM in each case.
As for `N#Cc1c(NC2CCCC2)sc(C(=O)C2CC2)c1N` [Compound 1-179, 4-Amino-2-cyclopentylamino-5-cyclopropanecarbonyl-thiophene-3-carbonitrile], the half-maximal inhibitory concentration (IC50) in assay [1] and in assay [2] was less than 10 µM each time.
In the case of `N#Cc1c(NC2CCCC2)sc(C(=O)c2ccc(Cl)cc2)c1N` [Compound 1-182, 4-Amino-5-(4-chloro-benzoyl)-2-cyclopentylamino-thiophene-3-carbonitrile], the IC50 in assay [1] was greater than 10 µM; in assay [2], less than 10 µM.

(Values after patent US7585859B2, “PDE4B inhibitors and uses therefor” (Plexxikon, Inc., priority 2004, dated 2009).)
